Literature values as cited in patent US20080085892A1, “Liquid dosage form of acetaminophen” (priority 2006, published 2008).

solubility in water: about 5 % wt. | solubility in water (in words): slightly soluble
Structure (SMILES): COc1ccccc1OCC(O)CO (centres unmarked) [Guaifenesin, 3-(2-methoxyphenoxy)-1,2-propanediol]
